In US20260217767A1, “NOVEL A4B7 THIOETHER PEPTIDE DIMER ANTAGONISTS” (Protagonist Therapeutics, Inc., priority 2014, published 2026):
*1 amine or outer side, *2 acyl side, *3 side chain or, on linkers, in order; H or OH if unused. Where a SMILES comes first, the peptide text is derived from it. Bridges are numbered along the chain shown (N, C = ends). Roman numbers before positions name the chains, in order. [ ]: non-standard residue; d: D form. Diglycolyl = O=C(COCC(=O)[*:2])[*:1]; NMeR = CN[C@@H](CCCNC(=N)N)C(=O)O; β3hE = N[C@@H](CCC(=O)O)CC(=O)O; X1 = O=C(c1ccccc1C[*:2])[*:1]; Pen = CC(C)(S)[C@H](N)C(=O)O

Tests used:
[1] = Simulated Intestinal Fluid (SIF) Stability Assay; format: in vitro ADME; conditions: 37° C.; for half-life at 22 μM: pig, simulated intestinal fluid (SIF) with 1% porcine pancreatin, pH 6.5, porcine pancreatin; for half-life: simulated gi fluid, porcine pancreatin
How it was run: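 Percent peptide remaining over time was measured by LC-MS/MS as the peak-area ratio to internal standard, and a first-order decay fit gave half-life. Digests contained 22 μM peptide and 1% pancreatin in pH 6.5 FaSSIF buffer at 37° C. Aliquots were quenched in organic solvent with formic acid.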

[2] = Simulated Gastric Fluid (SGF) Stability Assay; format: in vitro ADME; conditions: pH 2, 37° C.; for half-life at 20 μM: pig, simulated gastric fluid (SGF) with porcine pepsin; for half-life: simulated gi fluid, porcine pepsin
Description: Simulated Gastric Fluid (SGF) Stability Assays
Studies were carried out in simulated gastric fluid (SGF) to evaluate intestinal stability of the peptide molecules of the instant invention. SGF was prepared by adding 20 mg NaCl, 32 mg porcine pepsin (MP Biochemicals, catalog 02102599), and 70 μl HCl to 10 ml water (final pH=2). Aliquots of SGF (0.5 ml each) were pre-warmed at 37° C. To start the reaction, 1 μl of peptide stock solution (10 mM in DMSO) was added to 0.5 ml SGF and thoroughly mixed such that the final peptide concentration was 20 μM. The reactions were incubated at 37° C. with gentle shaking. At each time point (0, 15, 30, 60 min) 50 μl aliquots were removed and added to 200 μl acetonitrile containing 0.1% formic acid to quench the reaction. Samples are stored at 4° C. until the end of the experiment and centrifuged at 10,000 rpm for 5 minutes. Aliquots of the supernatant were removed, diluted 1:1 into distilled water containing internal standard, and analyzed by LCMS/MS. Percent remaining at each timepoint was calculated based on the peak area response ratio of test to compound to internal standard. Time 0 was set to 100%, and all later timepoints were calculated relative to time 0. Half-lives were calculated by fitting to a first-order exponential decay equation using GraphPad.

α4β1 = biological target: T1, α4β1 (Homo sapiens, UniProt P05556+P13612); assay: α4β1-VCAM Competition ELISA; format: binding; conditions: thioether peptide dimers, Table 7; read-out: ELISA A4B1
T1 construct: purchased R&D Systems 5668-A4
T1 sequence (P13612 34-977 limits assumed): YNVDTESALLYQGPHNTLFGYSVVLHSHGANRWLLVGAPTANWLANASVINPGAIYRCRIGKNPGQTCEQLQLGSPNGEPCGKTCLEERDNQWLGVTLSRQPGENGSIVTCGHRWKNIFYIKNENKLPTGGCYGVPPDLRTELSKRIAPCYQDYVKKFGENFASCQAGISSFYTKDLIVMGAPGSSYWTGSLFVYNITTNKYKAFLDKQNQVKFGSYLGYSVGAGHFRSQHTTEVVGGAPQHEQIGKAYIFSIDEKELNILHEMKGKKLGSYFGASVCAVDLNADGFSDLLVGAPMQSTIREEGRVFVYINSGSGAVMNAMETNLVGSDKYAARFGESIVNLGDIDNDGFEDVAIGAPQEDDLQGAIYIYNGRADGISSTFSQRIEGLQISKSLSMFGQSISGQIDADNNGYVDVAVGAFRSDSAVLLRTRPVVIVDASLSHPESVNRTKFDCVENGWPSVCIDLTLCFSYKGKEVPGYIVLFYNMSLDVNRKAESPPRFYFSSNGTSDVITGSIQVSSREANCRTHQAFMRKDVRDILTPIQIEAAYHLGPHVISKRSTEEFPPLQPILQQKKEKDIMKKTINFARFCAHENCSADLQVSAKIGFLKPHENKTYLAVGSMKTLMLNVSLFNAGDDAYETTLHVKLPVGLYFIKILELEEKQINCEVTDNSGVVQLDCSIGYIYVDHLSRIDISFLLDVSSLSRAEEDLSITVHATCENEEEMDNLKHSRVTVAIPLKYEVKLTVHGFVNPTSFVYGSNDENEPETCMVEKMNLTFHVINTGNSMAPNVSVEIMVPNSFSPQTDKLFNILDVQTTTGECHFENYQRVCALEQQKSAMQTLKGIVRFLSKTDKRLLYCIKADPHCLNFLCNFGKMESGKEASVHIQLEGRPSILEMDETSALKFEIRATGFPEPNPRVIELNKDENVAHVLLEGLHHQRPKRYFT
T1 sequence (P05556 21-728 limits assumed): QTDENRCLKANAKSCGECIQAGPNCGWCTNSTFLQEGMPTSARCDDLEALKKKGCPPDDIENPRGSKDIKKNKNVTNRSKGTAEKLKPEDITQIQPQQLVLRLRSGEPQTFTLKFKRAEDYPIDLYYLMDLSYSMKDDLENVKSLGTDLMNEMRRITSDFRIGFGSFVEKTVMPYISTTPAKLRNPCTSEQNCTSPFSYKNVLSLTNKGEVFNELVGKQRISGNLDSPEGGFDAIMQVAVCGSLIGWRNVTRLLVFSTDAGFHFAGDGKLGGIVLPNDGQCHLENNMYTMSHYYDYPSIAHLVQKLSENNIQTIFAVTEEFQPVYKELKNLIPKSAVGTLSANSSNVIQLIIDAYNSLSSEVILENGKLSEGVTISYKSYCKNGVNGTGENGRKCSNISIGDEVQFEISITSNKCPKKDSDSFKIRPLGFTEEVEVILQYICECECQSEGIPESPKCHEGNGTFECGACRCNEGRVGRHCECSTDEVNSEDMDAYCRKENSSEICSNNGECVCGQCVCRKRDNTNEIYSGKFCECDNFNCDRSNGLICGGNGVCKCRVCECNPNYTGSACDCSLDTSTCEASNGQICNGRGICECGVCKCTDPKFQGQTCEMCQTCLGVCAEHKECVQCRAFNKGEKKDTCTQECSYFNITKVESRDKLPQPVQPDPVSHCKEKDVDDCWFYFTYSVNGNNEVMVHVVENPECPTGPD
Description: α4β1-VCAM Competition ELISA
A Nunc MaxiSorp plate was coated with rh VCAM-1/CD106 Fc chimera (R&D #862-VC) at 400 ng/well in 50 ul per well in 1×PBS and incubated overnight at 4° C. The solution was removed by shaking and then blocked with 250 ul of 1% BSA in 1×PBS per well. The wells were then incubated at room temperature for 1 hr with shaking. Each well was then washed once with wash buffer (50 mM Tris-HCl pH7.6, 100 mM NaCL, 1 mM MnCl2 or MgCl2, 0.05% Tween-20). 25 ul of serial dilutions of peptides starting at 200 μM in assay buffer (Assay buffer: 50 mM Tris-HCl pH7.6, 100 mM NaCl, 1 mM MnCl2 or MgCl2, 0.05% Tween-20) was added to each well. Additionally, 25 μl of α4β1 (R&D Systems #5668-A4) was added to each well at a fixed concentration of 120 nM. The final peptide and α4β1 concentrations were 100 μM and 60 nM, respectively. The plates were then incubated at 37° C. for 2 hr. The solution was then removed by shaking and each well was washed three times with wash buffer. 50 ul of 9F10 antibody at 4 ug/ml (purified mouse anti-human CD49d, BD Bioscience Cat #555502) was then added to each well, and the plate was incubated at room temperature for Ihr with shaking. The solution was again removed by shaking, and each well was washed three times with wash buffer. 50 μl of peroxidase-conjugated AffiniPure Goat anti-mouse IgG (Jackson immune research cat #115-035-003) diluted in 1:5000 in assay buffer was added to each well. The plate was incubated at room temperature for 30 min with shaking. Each well was then washed 3 times with wash buffer. 100 ul of TMB was then added to each well and closely observe during developing time. The reaction was stepped with 2N H2SO4 and absorbance was read at 450 nm.

Jurkat E6.1 cells = Jurkat E6.1 cells (Homo sapiens, UniProt P05556+P13612); assay: α4β1-VCAM Cell Adhesion Assay; format: cell-based; conditions: thioether peptide dimers, Table 7; read-out: Cell Adhesion A4B1
Sequence of Jurkat E6.1 cells (P13612 34-1032): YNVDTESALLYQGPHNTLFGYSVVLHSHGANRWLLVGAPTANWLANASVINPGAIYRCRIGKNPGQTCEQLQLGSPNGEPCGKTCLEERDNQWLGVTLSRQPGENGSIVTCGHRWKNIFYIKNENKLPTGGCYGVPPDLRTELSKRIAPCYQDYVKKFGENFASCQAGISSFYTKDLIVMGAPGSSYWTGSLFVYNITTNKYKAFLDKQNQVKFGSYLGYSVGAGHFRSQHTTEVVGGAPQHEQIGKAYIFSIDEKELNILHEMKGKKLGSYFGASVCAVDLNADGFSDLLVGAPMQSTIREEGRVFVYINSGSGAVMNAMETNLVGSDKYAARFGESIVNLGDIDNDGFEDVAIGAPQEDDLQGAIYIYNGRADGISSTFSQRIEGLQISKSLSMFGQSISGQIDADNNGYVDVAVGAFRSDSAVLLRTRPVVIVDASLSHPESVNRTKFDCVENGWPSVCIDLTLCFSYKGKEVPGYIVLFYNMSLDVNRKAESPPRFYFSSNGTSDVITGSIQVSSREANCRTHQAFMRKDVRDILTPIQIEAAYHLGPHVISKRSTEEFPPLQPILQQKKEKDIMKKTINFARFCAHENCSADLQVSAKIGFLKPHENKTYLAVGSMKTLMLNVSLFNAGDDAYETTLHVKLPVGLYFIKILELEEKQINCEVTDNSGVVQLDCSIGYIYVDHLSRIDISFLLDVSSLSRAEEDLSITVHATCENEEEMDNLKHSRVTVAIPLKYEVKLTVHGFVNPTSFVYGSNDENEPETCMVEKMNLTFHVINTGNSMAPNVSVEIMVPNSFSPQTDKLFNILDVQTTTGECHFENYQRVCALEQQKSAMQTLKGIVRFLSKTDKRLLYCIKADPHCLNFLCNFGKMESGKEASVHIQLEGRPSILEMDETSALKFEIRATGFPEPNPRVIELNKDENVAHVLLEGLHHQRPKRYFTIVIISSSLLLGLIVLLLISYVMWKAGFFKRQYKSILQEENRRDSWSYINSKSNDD
Sequence of Jurkat E6.1 cells (P05556 21-798): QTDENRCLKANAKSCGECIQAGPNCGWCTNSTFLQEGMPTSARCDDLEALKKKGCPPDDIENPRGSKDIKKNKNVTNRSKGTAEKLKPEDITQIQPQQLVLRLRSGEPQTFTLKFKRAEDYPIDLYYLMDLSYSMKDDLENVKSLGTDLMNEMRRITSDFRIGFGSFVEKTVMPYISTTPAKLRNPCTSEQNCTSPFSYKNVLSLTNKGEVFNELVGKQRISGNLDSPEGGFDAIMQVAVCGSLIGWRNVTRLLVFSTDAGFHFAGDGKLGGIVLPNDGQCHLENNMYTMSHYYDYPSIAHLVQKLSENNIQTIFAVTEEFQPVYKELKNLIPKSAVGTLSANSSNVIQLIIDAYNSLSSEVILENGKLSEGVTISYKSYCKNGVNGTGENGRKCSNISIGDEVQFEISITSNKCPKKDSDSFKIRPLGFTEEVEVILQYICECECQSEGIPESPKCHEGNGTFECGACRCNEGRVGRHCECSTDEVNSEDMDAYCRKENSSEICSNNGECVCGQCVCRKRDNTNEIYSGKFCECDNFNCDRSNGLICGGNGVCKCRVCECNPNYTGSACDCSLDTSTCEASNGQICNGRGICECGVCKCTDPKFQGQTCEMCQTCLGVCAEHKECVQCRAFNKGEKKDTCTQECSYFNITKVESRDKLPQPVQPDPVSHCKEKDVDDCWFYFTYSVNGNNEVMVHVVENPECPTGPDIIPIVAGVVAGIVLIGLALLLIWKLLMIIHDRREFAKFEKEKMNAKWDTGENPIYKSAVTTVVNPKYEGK
Description: α4β1-VCAM Cell Adhesion Assay
Jurkat E6.1 cells (Sigma #88042803) were cultured in RPMI 1640 HEPES medium (Invitrogen #22400-089) supplemented with 10% serum (Fetal Bovine Serum, Invitrogen #16140-071), 1 mM sodium pyruvate (Invitrogen #11360-070), 2 mM L-glutamine (Invitrogen #25030-081) and Penicillin-Streptomycin (Invitrogen #15140-122) at 100 units of penicillin and 100 μg of streptomycin per ml. The cells were washed two times in DMEM medium (ATCC #30-2002) supplemented with 0.1% BSA, 10 mM HEPES pH 7 and 1 mM MnCl2. The cells were re-suspended in supplemented DMEM medium at a density of 4×10^6 cells/ml.
A Nunc MaxiSorp plate was coated with rh VCAM-1/CD106 Fc chimera (R&D #862-VC) at 400 ng per well in 50 μl per well in 1×PBS and incubated at 4° C. overnight. The solution was then removed by shaking, blocked with 250 μl per well PBS containing 1% BSA, and incubated at 37° C. for 1 hr. The solution was removed by shaking. Peptides were diluted by serial dilution in a final volume of 50 μl per well (2× concentration). To each well, 50 μl of cells (200,000 cells) were added and the plate was incubated at 37° C., 5% CO2 for 30-45 min to allow cell adhesion. The wells were washed manually three times (100 μl per wash) with supplemented DMEM. After the final wash, 100 μl/well of supplemented DMEM and 10 ul/well of MTT reagent (ATTC cat #30-1010K) were added. The plate was incubated at 37° C., 5% CO2 for 2-3 hrs until a purple precipitate is visible. 100 ul of Detergent Reagent (ATTC cat #30-1010K) is added to each well. The plate was covered from the light, wrapped in Parafilm to prevent evaporation, and left overnight at room temperature in the dark. The plate was shaken for 5 min and the absorbance at 570 nm is measured. To calculate the dose response, the absorbance value of control wells not containing cells was subtracted from each test well.

## CC(C)C[C@@H]1NC(=O)[C@H]([C@@H](C)O)NC(=O)[C@H](CC(=O)O)NC(=O)[C@H](CO)NC(=O)[C@H](CCCNC(=N)N)N(C)C(=O)c2ccccc2CSC(C)(C)[C@@H](C(=O)N[C@@H](Cc2ccc(O)cc2)C(=O)N[C@@H](CCC(=O)O)CC(=O)N[C@H](CCCCNC(=O)COCC(=O)NCCCC[C@@H](NC(=O)C[C@H](CCC(=O)O)NC(=O)[C@H](Cc2ccc(O)cc2)NC(=O)[C@H]2NC(=O)[C@H](CC(C)C)NC(=O)[C@H]([C@@H](C)O)NC(=O)[C@H](CC(=O)O)NC(=O)[C@H](CO)NC(=O)[C@H](CCCNC(=N)N)N(C)C(=O)c3ccccc3CSC2(C)C)C(N)=O)C(N)=O)NC1=O [compound 165] (I: [NMeR]SDTL[Pen]Y[β3hE][dK]-NH2 / II: [NMeR]SDTL[Pen]Y[β3hE][dK]-NH2; linker I:9-II:9 via Diglycolyl; linker I:N-I:6, II:N-II:6 via X1)
[1]; dimers, Table 7
  half-life at 22 μM: > 3 h
[2]; dimers, Table 7
  half-life at 20 μM: > 1 h

## CC(C)C[C@@H]1NC(=O)[C@H]([C@@H](C)O)NC(=O)[C@H](CC(=O)O)NC(=O)[C@H](CO)NC(=O)[C@H](CCCNC(=N)N)N(C)C(=O)c2ccccc2CSC(C)(C)[C@@H](C(=O)N[C@@H](Cc2c[nH]c3ccccc23)C(=O)N[C@H](CCC(=O)O)C(N)=O)NC1=O [compound 97] (HELM PEPTIDE1{[meR].S.D.T.L.[Pen].W.[dE].[am]}|CHEM1{[O=C(c1ccccc1C[*:2])[*:1]]}$PEPTIDE1,CHEM1,1:R1-1:R1|PEPTIDE1,CHEM1,6:R3-1:R2$$$V2.0)
[1]; monomers, Table 6
  half-life: > 3 h
[2]; monomers, Table 6
  half-life: > 3 h

## CC(C)C[C@@H]1NC(=O)[C@H]([C@@H](C)O)NC(=O)[C@H](CC(=O)O)NC(=O)[C@H](CO)NC(=O)[C@H](CCCNC(=N)N)N(C)C(=O)c2ccccc2CSC(C)(C)[C@@H](C(=O)N[C@@H](Cc2c[nH]c3ccccc23)C(=O)N[C@H](CCC(=O)O)C(=O)N[C@H](CCCCN)C(N)=O)NC1=O [compound 150] (HELM PEPTIDE1{[meR].S.D.T.L.[Pen].W.[dE].[dK].[am]}|CHEM1{[O=C(c1ccccc1C[*:2])[*:1]]}$PEPTIDE1,CHEM1,1:R1-1:R1|PEPTIDE1,CHEM1,6:R3-1:R2$$$V2.0)
[1]; dimers, Table 7
  half-life: > 3 h
[2]; dimers, Table 7
  half-life: > 3 h

## CC(C)C[C@@H]1NC(=O)[C@H]([C@@H](C)O)NC(=O)[C@H](CC(=O)O)NC(=O)[C@H](CO)NC(=O)[C@H](CCCNC(=N)N)N(C)C(=O)c2ccccc2CSC(C)(C)[C@@H](C(=O)N[C@@H](Cc2ccc(O)cc2)C(=O)N[C@H](CCC(=O)O)C(=O)N[C@H](CCCCN)C(N)=O)NC1=O [compound 169] (HELM PEPTIDE1{[meR].S.D.T.L.[Pen].Y.[dE].[dK].[am]}|CHEM1{[O=C(c1ccccc1C[*:2])[*:1]]}$PEPTIDE1,CHEM1,1:R1-1:R1|PEPTIDE1,CHEM1,6:R3-1:R2$$$V2.0)
α4β1
  IC50: 100 to 1000 nM
Jurkat E6.1 cells
  IC50: > 100000 nM
[1]; dimers, Table 7
  half-life at 22 μM: > 3 h
[2]; dimers, Table 7
  half-life at 20 μM: > 3 h

## CC(C)C[C@@H]1NC(=O)[C@H]([C@@H](C)O)NC(=O)[C@H](CC(=O)O)NC(=O)[C@H](CO)NC(=O)[C@H](CCCNC(=N)N)N(C)C(=O)c2ccccc2CSC(C)(C)[C@@H](C(=O)N[C@@H](Cc2c[nH]c3ccccc23)C(=O)N[C@@H](CCC(=O)O)C(=O)N(C)[C@H](CCCCN)C(N)=O)NC1=O [compound 152] (HELM PEPTIDE1{[meR].S.D.T.L.[Pen].W.E.[CN([C@H](CCCCN)C(=O)[*:2])[*:1]].[am]}|CHEM1{[O=C(c1ccccc1C[*:2])[*:1]]}$PEPTIDE1,CHEM1,1:R1-1:R1|PEPTIDE1,CHEM1,6:R3-1:R2$$$V2.0)
α4β1
  IC50: 25 to 100 nM
Jurkat E6.1 cells
  IC50: > 100000 nM
[1]; dimers, Table 7
  half-life at 22 μM: > 3 h
[2]; dimers, Table 7
  half-life at 20 μM: > 1 h

## CC(C)C[C@@H]1NC(=O)[C@H]([C@@H](C)O)NC(=O)[C@H](CC(=O)O)NC(=O)[C@H](CO)NC(=O)[C@H](CCCNC(=N)N)N(C)C(=O)c2ccccc2CSC(C)(C)[C@@H](C(=O)N[C@@H](Cc2ccccc2)C(=O)N[C@@H](CCC(=O)O)CC(=O)N[C@H](CCCCN)C(N)=O)NC1=O [compound 164] (HELM PEPTIDE1{[meR].S.D.T.L.[Pen].F.[O=C(O)CC[C@@H](CC(=O)[*:2])N[*:1]].[dK].[am]}|CHEM1{[O=C(c1ccccc1C[*:2])[*:1]]}$PEPTIDE1,CHEM1,1:R1-1:R1|PEPTIDE1,CHEM1,6:R3-1:R2$$$V2.0)
α4β1
  IC50: 25 to 100 nM
Jurkat E6.1 cells
  IC50: > 100000 nM
[1]; dimers, Table 7
  half-life at 22 μM: > 3 h
[2]; dimers, Table 7
  half-life at 20 μM: > 1 h
